PubChem BioAssay (NCI)
“And” between values parts separate entries of the source, which are not always exact repeats. Equal values may be shown once.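 Tested at 5 concentrations; 48 h exposure; 96-well plates; endpoints linearly interpolated, else capped at highest concentration. GI50: concentration for 50% inhibition of growth. The concentration for full growth arrest is given as TGI.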

Tests used:
Test in all cases: NCI-60 cell line screen, 48 h
MALME-3M melanoma = tested on: MALME-3M melanoma
HCC-2998 colon = tested on: HCC-2998 colon
UO-31 renal = tested on: UO-31 renal
SNB-19 CNS = tested on: SNB-19 CNS
TK-10 renal = tested on: TK-10 renal
SF-539 CNS = tested on: SF-539 CNS
HT29 colon = tested on: HT29 colon
SF-268 CNS = tested on: SF-268 CNS
K-562 leukemia = tested on: K-562 leukemia
SF-295 CNS = tested on: SF-295 CNS

Row | Structure (SMILES) | TGI (MALME-3M melanoma) | TGI (HCC-2998 colon) | TGI (UO-31 renal) | TGI (SNB-19 CNS) | TGI (TK-10 renal) | TGI (SF-539 CNS) | TGI (HT29 colon) | TGI (SF-268 CNS) [µM] | TGI (K-562 leukemia) | TGI (SF-295 CNS) | GI50 (MALME-3M melanoma) [µM] | GI50 (HCC-2998 colon) [µM] | GI50 (UO-31 renal) | GI50 (SNB-19 CNS) [µM] | GI50 (TK-10 renal) [µM] | GI50 (SF-539 CNS) [µM] | GI50 (HT29 colon) | GI50 (SF-268 CNS) [µM] | GI50 (K-562 leukemia) | GI50 (SF-295 CNS)
1 | O=C(c1ccc(Cl)cc1)C(O)c1ccc(Cl)cc1 (centres undefined) | > 100 µM | > 100 µM | > 100 µM | > 100 µM | > 100 µM | > 100 µM | > 100 µM | > 100 | > 100 µM | > 100 µM | – | – | – | – | – | – | – | – | – | –
2 | CCNC(=O)OCc1c(COC(=O)NCC)c(-c2ccc(Cl)c(Cl)c2)n2c1CCC2 | 30.7 µM | 27.7 µM | 24.3 µM | 68.1 µM | 54.5 µM | 25.6 µM | > 100 µM | 32.8 | 37.8 µM | 36.7 µM | – | – | – | – | – | – | – | – | – | –
3 | Cc1cn(Cc2ccc(C34CC5CC(CC(C5)C3)C4)c(O)c2)c(=O)[nH]c1=O | 29.7 µM | 21.4 µM | 23.8 µM | 31.1 µM | 32.2 µM | 23 µM | 26.5 µM | 41.8 | 11 µM | 18.5 µM | 14.6 | 9.45 | 11.6 µM | 13.9 | 14.7 | 9.45 | 11.1 µM | 12.7 | 2.99 µM | 4.56 µM
4 | COc1c(-c2ccccc2)nc2ccc(Oc3ccccc3)nn12 | > 92.6 µM | > 100 µM | > 100 µM | > 100 µM | > 100 µM | > 100 µM | > 100 µM | > 100 | > 100 µM | > 100 µM | – | – | – | – | – | – | – | – | – | –
5 | Cc1nc2c(o1)C(=Nc1ccccc1)c1nc(C)oc1C2=Nc1ccccc1 | 41.6 µM | 80.3 µM | 35.1 µM | 42.5 µM | > 100 µM | 27.3 µM | 45.5 µM | 47.9 | > 100 µM | 46.7 µM | – | – | – | – | – | – | – | – | – | –
6 | Cn1c2c(c3c(Cl)nncc31)Cc1ccccc1-2 | 85.6 µM | > 100 µM | > 100 µM | 51.1 µM | > 100 µM | 76.1 µM | 44.5 µM | > 100 | > 100 µM | 66.7 µM | 24.9 | 20.9 | 31.4 µM | 12.9 | 26.2 | 20 | 16.9 µM | 25.9 | 25.9 µM | 17.5 µM
7 | N#CC(C(=O)/C(=N\NC(N)=O)C(C#N)c1ccccc1)c1ccccc1 (centres undefined) | > 100 µM | > 100 µM | > 100 µM | > 100 µM | > 100 µM | > 100 µM | > 100 µM | > 100 | > 100 µM | > 100 µM | – | – | – | – | – | – | – | – | – | –
8 | N/N=C(/Cc1nc2ccc(C(=O)c3ccccc3)cc2[nH]c1=O)C(=O)Nc1ccc([N+](=O)[O-])cc1[N+](=O)[O-] | > 100 µM | > 100 µM | > 100 µM | > 100 µM | > 100 µM | > 100 µM | > 100 µM | > 100 | > 100 µM | > 100 µM | – | > 100 | – | – | – | – | > 100 µM | > 100 | > 100 µM | > 100 µM
9 | N#Cc1cnc(Nc2cc(NC[C@H]3CNCCO3)c(C(F)(F)F)cn2)cn1 | 27.8 µM | 30.2 µM | 69.2 µM | > 100 µM | 36 µM | 17.3 µM | 92 µM | 47.5 | 22.1 µM | > 100 µM | 10.4 | 6.84 | 5.49 µM | 9.67 | 3.66 | 0.669 | 25.7 µM | 16.2 | 3.19 µM | 0.525 µM
10 | c1ccc(CNCCN(CCNCc2ccccn2)Cc2ccc3ccccc3c2)nc1 | 3.63 µM | 3.39 µM | 2.3 µM | 8.95 µM | 6.58 µM | 3.1 µM | 7.93 µM | 12.3 | 8.73 µM | 3.55 µM | 1.65 | 1.83 | 0.668 µM | 2.68 | 1.36 | 1.64 | 3.04 µM | 2.89 | 2.97 µM | 1.42 µM
11 | COC(=O)C1C(=O)O[C@@H](c2cc(OC)c(OC)cc2OC)C1C(=O)OC (mixture of isomers) | > 100 µM | > 100 µM | > 100 µM | > 100 µM | > 100 µM | > 100 µM | > 100 µM | > 100 | > 100 µM | > 100 µM | – | – | – | – | – | – | – | – | – | –
12 | CC[C@@H](C)/C=C(C)/C=C/C(=O)c1c(O)c(-c2ccc(O)cc2)cn(O)c1=O | 4.7 µM | 13.1 µM | 3.68 µM | 16.3 µM | 15.3 µM | 5.83 µM | 11.4 µM | 12.3 | > 41.2 µM | 9.99 µM | 0.255 | 2.31 | 0.266 µM | 0.575 | 0.524 | 0.369 | 3.22 µM | 0.33 | 0.392 µM | 0.703 µM
13 | O=C1/C(=C/c2ccc(Cl)cc2)CNC/C1=C\c1ccc(Cl)cc1 | 20.5 µM and 16.8 µM | 4 µM and 3.36 µM | 2.98 µM and 6.5 µM | 3.14 µM and 11 µM | 25.9 µM and 12.3 µM | 3.2 µM and 4.11 µM | 0.697 µM and 3.38 µM | 3.77 | 17.3 µM and > 100 µM | 4.59 µM and 5.8 µM | – | – | 1.62 µM and 3.48 µM | – | – | – | 0.254 µM and 1.28 µM | – | 0.551 µM and 1.37 µM | 0.532 µM and 2.26 µM
14 | Nc1ccccc1C(=O)CCC1C(=O)NC(=S)NC1=O | > 100 µM | > 100 µM | > 100 µM | > 100 µM | > 100 µM | > 100 µM | > 100 µM | > 100 | > 100 µM | > 100 µM | – | – | – | – | – | – | – | – | – | –
15 | CC(=O)[CH-]C(=O)c1ccccc1.CC(=O)[CH-]C(=O)c1ccccc1.CC(=O)[CH-]C(=O)c1ccccc1.[Nd+3].[OH3+] | 94.4 µM | > 100 µM | > 100 µM | > 100 µM | > 100 µM | > 100 µM | > 100 µM | > 100 | > 100 µM | 86.2 µM | 27.2 | 85.7 | > 100 µM | > 100 | > 100 | 52.9 | 30 µM | 41.3 | 42.6 µM | 21.2 µM
